test system: HCV 1b_Huh-Luc/Neo-ET cell line persistently expressing a bicistronic genotype 1b replicon in Huh 7 cells; assay: HCV replicon assay (luciferase readout); assay type: cell-based; settings: Hepatitis C virus, Huh-7, 72 h, read-out: Inhibition of HCV genotype 1b
Procedure: Biological activity of the compounds of the invention was determined using an HCV replicon assay. The HCV 1b_Huh-Luc/Neo-ET cell line persistently expressing a bicistronic genotype 1b replicon in Huh 7 cells was obtained from ReBLikon GMBH. This cell line was used to test compound inhibition using luciferase enzyme activity readout as a measurement of compound inhibition of replicon levels.
On Day 1 (the day after plating), each compound is added in triplicate to the cells. Plates incubated for 72 h prior to running the luciferase assay. Enzyme activity was measured using a Bright-Glo Kit (cat. number E2620) manufactured by Promega Corporation. The following equation was used to generate a percent control value for each compound. % Control=(Average Compound Value/Average Control)*100
The EC50 value was determined using GraphPad Prism and the following equation: Y=Bottom+(Top−Bottom)/(1+10^((Log IC50−X)*HillSlope))
EC50 values of compounds are determined several times in the replicon assay.
Example compounds of the disclosed invention are illustrated in Tables 1-14 attached as appendices. The tables show inhibitory activity of many of the example compounds with respect to HCV 1b. […] The tables further provide mass spectrometry results for the synthesized example compounds.

Compound | EC50 [nM]
COC(=O)N[C@H](C(=O)N1CCC[C@H]1c1ncc(-c2ccc(C#Cc3ccc(-c4cnc([C@@H]5CCCN5C(=O)[C@@H](NC(=O)OC)[C@@H](C)OC)[nH]4)cc3)cc2)[nH]1)[C@@H](C)OC [Compound 284] | < 1
COC(=O)N[C@@H](C(=O)N1CCC[C@H]1c1ncc(C#Cc2ccc(-c3ccc(-c4cnc([C@@H]5CCCN5C(=O)[C@@H](c5ccccc5)N(C)C)[nH]4)cc3)cc2)[nH]1)c1ccccc1 [Compound 755] | < 1
COC(=O)N[C@@H](C(=O)N[C@@H](C)c1ncc(-c2ccc(C#Cc3ccc(-c4cnc([C@@H]5CCCN5C(=O)[C@H](NC(=O)OC)C(C)C)[nH]4)cc3)cc2)[nH]1)C(C)C [Compound 290] | > 1000
C[C@@H](NC(=O)[C@@H]1CCCN1C(=O)[C@H](NC(=O)C1CC1)c1ccccc1)c1ccc(C#Cc2cnc([C@@H]3CCCN3C(=O)[C@H](NC(=O)C3CC3)c3ccccc3)[nH]2)cc1 [Compound 135] | > 1000
O=C(N[C@@H](C(=O)N1CCC[C@H]1c1ncc(-c2ccc(C#Cc3ccc(-c4cnc([C@@H]5CCCN5C(=O)[C@H](NC(=O)C5CC5)c5ccccc5)[nH]4)cc3)cc2)[nH]1)c1ccccc1)C1CC1 [Compound 153] | < 1
COC(=O)N[C@H](C(=O)N[C@@H](C)c1ncc(-c2ccc(C#Cc3ccc(-c4cnc([C@@H]5CCCN5C(=O)[C@@H](NC(=O)OC)[C@@H](C)O)[nH]4)cc3)cc2)[nH]1)[C@@H](C)O [Compound 291] | < 1
CS(=O)(=O)N[C@@H](C(=O)N1CCC[C@H]1c1ncc(-c2ccc(C#Cc3ccc(-c4cnc([C@@H]5CCCN5C(=O)[C@@H](c5ccccc5)N5CCCC5)[nH]4)cc3)cc2)[nH]1)c1ccccc1 [Compound 230] | < 1
C[C@H](NC(=O)[C@@H]1CCCN1C(=O)[C@H](NC(=O)OC(C)(C)C)c1ccccc1)c1ccc(C#Cc2cnc([C@@H]3CCCN3C(=O)[C@H](NC(=O)OC(C)(C)C)c3ccccc3)[nH]2)cc1 [Compound 130] | 10 to 999
CC(C)OC(=O)N[C@@H](C(=O)N1CCC[C@H]1c1ncc(-c2ccc(C#Cc3ccc(-c4cnc([C@@H]5CCCN5C(=O)[C@H](NC(=O)OC(C)C)c5ccccc5)[nH]4)cc3)cc2)[nH]1)c1ccccc1 [Compound 227] | < 1
O=C(N[C@@H](C(=O)N1CCC[C@H]1c1ncc(C#Cc2ccc(-c3cnc([C@@H]4CCCN4C(=O)[C@H](NC(=O)C4CC4)c4ccccc4)[nH]3)cc2)[nH]1)c1ccccc1)C1CC1 [Compound 100] | < 1
COC(=O)N[C@@H](C(=O)N1CCC[C@H]1c1ncc(-c2ccc(C#Cc3ccc(-c4cnc([C@@H]5CCCN5C(=O)[C@H](NC(=O)N5CCC[C@@H](O)C5)c5ccccc5)[nH]4)cc3)cc2)[nH]1)c1ccccc1 [Compound 264] | < 1
CC(C)[C@H](NC(=O)N1CCNCC1)C(=O)N1CCC[C@H]1c1ncc(-c2ccc(C#Cc3ccc(-c4cnc([C@@H]5CCCN5C(=O)[C@@H](NC(=O)N5CCNCC5)C(C)C)[nH]4)cc3)cc2)[nH]1 [Compound 967] | 10 to 999
COC(=O)N[C@H](C(=O)N1CCC[C@H]1c1ncc(-c2ccc(C#Cc3ccc(-c4cnc([C@@H]5CCCN5C(=O)[C@H](NC(=O)N(CCO)CCO)c5ccccc5)[nH]4)cc3)cc2)[nH]1)C(C)C [Compound 973] | < 1
CCN(CC)[C@@H](C(=O)N1CCC[C@H]1c1ncc(-c2ccc(C#Cc3ccc(-c4cnc([C@@H]5CCCN5C(=O)[C@@H](c5ccccc5)N(CC)CC)[nH]4)cc3)cc2)[nH]1)c1ccccc1 [Compound 173] | < 1
CN(C)[C@@H](C(=O)N1CCC[C@H]1c1ncc(-c2ccc(C#Cc3ccc(-c4cnc([C@@H]5CCCN5C(=O)[C@H](NC(=O)C5CC5)c5ccccc5)[nH]4)cc3)cc2)[nH]1)c1ccccc1 [Compound 215] | < 1
CC[C@H](NC(=O)OC)C(=O)N1CCC[C@H]1c1ncc(-c2ccc(C#Cc3ccc4nc([C@@H]5CCCN5C(=O)[C@H](CC)NC(=O)OC)[nH]c4c3)cc2)[nH]1 [Compound 1036] | < 1
COC(=O)N[C@H](C(=O)N[C@H](c1ncc(-c2ccc(C#Cc3ccc(-c4cnc([C@@H]5CCCN5C(=O)[C@@H](NC(=O)OC)C(C)C)[nH]4)cc3)cc2)[nH]1)C(C)C)C(C)C [Compound 276] | 1 to 9.9
O=C([C@@H](c1ccccc1)N1CCCC1)N1CCC[C@H]1c1ncc(-c2ccc(C#Cc3ccc(-c4cnc([C@@H]5CCCN5C(=O)[C@@H](c5ccccc5)N5CCCC5)[nH]4)cc3)cc2)[nH]1 [Compound 194] | < 1
CC(C)[C@@H](NC(=O)OC(C)(C)C)C(=O)N1CCC[C@H]1C(=O)NCc1ccc(C#Cc2cnc([C@@H]3CCCN3C(=O)[C@H](NC(=O)OC(C)(C)C)C(C)C)[nH]2)cc1 [Compound 120] | 10 to 999
COC[C@H]1CCCN1C(=O)N[C@@H](C(=O)N1CCC[C@H]1c1ncc(-c2ccc(C#Cc3ccc(-c4cnc([C@@H]5CCCN5C(=O)[C@H](NC(=O)OC)c5ccccc5)[nH]4)cc3)cc2)[nH]1)c1ccccc1 [Compound 259] | < 1

Compound | EC50 [nM]
CC(C)[C@@H](C(=O)N1CCC[C@H]1c1ncc(-c2ccc(C#Cc3ccc4nc([C@@H]5CCCN5C(=O)[C@H](C(C)C)N5CCOC5=O)[nH]c4c3)cc2)[nH]1)N1CCOC1=O [Compound 1039] | 1 to 9.9
COC(=O)N[C@@H](CC(=O)O)C(=O)N1CCC[C@H]1c1ncc(-c2ccc(C#Cc3ccc4nc([C@@H]5CCCN5C(=O)[C@H](CC(=O)O)NC(=O)OC)[nH]c4c3)cc2)[nH]1 [Compound 1061] | 10 to 999
CCN(CC)[C@@H](C(=O)N1CCC[C@H]1c1ncc(C#Cc2ccc(C#Cc3cnc([C@@H]4CCCN4C(=O)[C@H](NC(=O)OC)c4ccccc4)[nH]3)cc2)[nH]1)c1ccccc1 [Compound 315] | < 1
COC(=O)N[C@H](C(=O)N1CCC[C@H]1c1nc2ccc(C#Cc3ccc(-c4cnc([C@@H]5CCCN5C(=O)[C@H](NC(=O)OC)c5ccccc5)[nH]4)cc3)cc2[nH]1)C(C)C [Compound 1022] | < 1
CC(C)[C@@H](NC(=O)C1CC1)C(=O)N1CCC[C@H]1C(=O)NCc1ccc(C#Cc2cnc([C@@H]3CCCN3C(=O)[C@H](NC(=O)C3CC3)C(C)C)[nH]2)cc1 [Compound 122] | 1 to 9.9
C[C@H](NC(=O)[C@H](NC(=O)OC(C)(C)C)c1ccccc1)c1ncc(-c2ccc(C#Cc3ccc(-c4cnc([C@@H]5CCCN5C(=O)[C@H](NC(=O)OC(C)(C)C)c5ccccc5)[nH]4)cc3)cc2)[nH]1 [Compound 280] | < 1
COC(=O)N[C@@H](C(=O)N1CCC[C@H]1c1ncc(-c2ccc(C#Cc3ccc(-c4cnc([C@@H]5CCCN5C(=O)C5(c6ccccc6)CC5)[nH]4)cc3)cc2)[nH]1)c1ccccc1 [Compound 257] | < 1
COC(=O)N[C@@H](C(=O)N1CCC[C@H]1c1ncc(C#Cc2ccc(-c3ccc(-c4cnc([C@@H]5CCCN5C(=O)[C@H](NC(=O)OC(C)(C)C)c5ccccc5)[nH]4)cc3)cc2)[nH]1)c1ccccc1 [Compound 753] | < 1
CN(C)C(=O)N[C@@H](C(=O)N1CCC[C@H]1c1cc(-c2ccc(C#Cc3ccc(-c4cnc([C@@H]5CCCN5C(=O)[C@H](NC(=O)N(C)C)c5ccccc5)[nH]4)cc3)cc2)n[nH]1)c1ccccc1 [Compound 221] | < 1
COC(=O)N[C@@H](C(=O)N1CCC[C@H]1c1ncc(-c2ccc(C#Cc3ccc(-c4cnc([C@@H]5CCCN5C(=O)[C@H]5CCCO5)[nH]4)cc3)cc2)[nH]1)c1ccccc1 [Compound 177] | < 1
COC(=O)N[C@H](C(=O)N1CCC[C@H]1c1ncc(-c2ccc(C#Cc3ccc(-c4cnc([C@@H]5CCCN5C(=O)[C@@H](NC(=O)OC)C(C)(C)O)[nH]4)cc3)cc2)[nH]1)C(C)C [Compound 994] | < 1
COC(=O)N[C@@H](C(=O)N1CCC[C@H]1c1ncc(-c2ccc(C#Cc3ccc(-c4cnc([C@@H]5CCCN5C(=O)[C@H](NC(=O)N5CCC[C@H](O)C5)c5ccccc5)[nH]4)cc3)cc2)[nH]1)c1ccccc1 [Compound 263] | < 1
C[C@@H](NC(=O)OC(C)(C)C)C(=O)N1CCC[C@H]1c1ncc(-c2ccc(C#Cc3ccc(-c4cnc([C@@H]5CCCN5C(=O)[C@@H](C)NC(=O)OC(C)(C)C)[nH]4)cc3)cc2)[nH]1 [Compound 151] | 10 to 999
COC(=O)N[C@H](C(=O)N[C@@H](C)c1ncc(-c2ccc(C#Cc3ccc(-c4cnc([C@H](C)NC(=O)[C@@H](NC(=O)OC)[C@@H](C)OC)[nH]4)cc3)cc2)[nH]1)[C@@H](C)OC [Compound 952] | 1 to 9.9
COC(=O)N[C@@H](C(=O)N1CCC[C@H]1c1ncc(-c2ccc(C#Cc3ccc(-c4cnc([C@@H]5CCCN5C(=O)[C@H](NC(=O)OC)[C@H](C)OC)[nH]4)cc3)cc2)[nH]1)[C@H](C)OC [Compound 977] | 10 to 999
COC(=O)N[C@H](C(=O)N1CCC[C@H]1c1ncc(-c2ccc(C#Cc3ccc(-c4cnc([C@@H]5CCCN5C(=O)[C@@H](c5ccccc5)N5CCN(C)CC5)[nH]4)cc3)cc2)[nH]1)C(C)C [Compound 957] | < 1
COC(=O)N[C@@H](C(=O)N1CCC[C@H]1c1ncc(-c2ccc(C#Cc3ccc(-c4cnc([C@@H]5CCCN5C(=O)c5nccn5C)[nH]4)cc3)cc2)[nH]1)c1ccccc1 [Compound 176] | < 1
CCOC(=O)N[C@@H](C(=O)N1CCC[C@H]1c1ncc(-c2ccc(C#Cc3ccc(-c4cnc([C@@H]5CCCN5C(=O)[C@H](NC(=O)OCC)c5ccccc5)[nH]4)cc3)cc2)[nH]1)c1ccccc1 [Compound 244] | < 1
COC(=O)N[C@@H](Cc1cnc[nH]1)C(=O)N1CCC[C@H]1c1ncc(-c2ccc(C#Cc3ccc4nc([C@@H]5CCCN5C(=O)[C@H](Cc5cnc[nH]5)NC(=O)OC)[nH]c4c3)cc2)[nH]1 [Compound 1048] | 1 to 9.9

Source: patent US8865756B2, “Inhibitors of HCV NS5A” (Presidio Pharmaceuticals, Inc., priority 2008, dated 2014)
